Some test systems named below: LOX IMVI; HOP-62; HCT-15; MOLT-4; SK-MEL-2; ACHN; NCI/ADR-RES; COLO 205; NCI-H460; MDA-MB-231; SF-268; CCRF-CEM; UACC-257; KM12; MDA-MB-435; OVCAR-8; OVCAR-5; OVCAR-3; SN12C; SF-295.
Assay in all cases: DTP human tumour cell line panel, 48 h

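Values below derive from 48-hour exposures of cells grown in 96-well plates, with endpoints linearly interpolated between the two concentrations bracketing the appropriate inhibition level. The concentration for 50% growth inhibition is given as GI50.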 Active and inactive are the calls of the source. No stated cut-off is given here; in the data, active = GI50 up to about 1.1 µM and inactive = higher. Where a SMILES comes first, the peptide text is derived from it. The star is where a group is joined. OSu = O=C1CCC(=O)N1O*; OBn = c1ccc(CO*)cc1; Bn = c1ccc(C*)cc1

What is called GI50 is the concentration giving 50% growth inhibition.

For `Cc1cc(C)nc(NC(=S)Nc2ccc([N+](=O)[O-])cc2)c1`, the GI50 in the test on LOX IMVI was > 100 µM (inactive); with HOP-62 it was > 100 µM (inactive); in the test on HCT-15 it was more than 100 µM; in the test on MOLT-4 it was > 100 µM (inactive); with SK-MEL-2, > 100 µM (inactive); with ACHN it was > 100 µM (inactive). In addition, the GI50 in the test with NCI/ADR-RES, in the test with COLO 205, in the test on NCI-H460, in the test on MDA-MB-231, in the test on SF-268 and with CCRF-CEM was > 100 µM (inactive) each time. Also, the GI50 with UACC-257, in the test on KM12, in the test with MDA-MB-435 and in the test on OVCAR-8 was > 100 µM (inactive) each time.

As to `CC(C)(C)OC(=O)NCC(=O)N1CCCN(C(=O)CNC(=O)OC(C)(C)C)CC1`, the GI50 with OVCAR-5 is > 100 µM (inactive); in the test on OVCAR-3 it was > 100 µM (inactive); in the test on LOX IMVI, > 100 µM (inactive); with HOP-62, > 100 µM (inactive); in the test on HCT-15, more than 100 µM; with SN12C it was > 100 µM (inactive). For the same molecule, the GI50 in the test on MOLT-4, with SK-MEL-2, in the test on ACHN, with NCI/ADR-RES, in the test with COLO 205 and with NCI-H460 was > 100 µM (inactive) each time. For the same molecule, the GI50 in the test with MDA-MB-231, in the test on SF-268, with UACC-257, in the test with KM12, with SF-295 and in the test on MDA-MB-435 was > 100 µM (inactive) in each case. Moreover, the GI50 with OVCAR-8 was > 100 µM (inactive).

Take `N#CC(CC(=O)O)=C(c1ccccc1)c1ccccc1`: the GI50 in the test with OVCAR-5 is > 100 µM (inactive); in the test on OVCAR-3 it was > 100 µM (inactive); with LOX IMVI it was > 100 µM (inactive); in the test with HOP-62, > 100 µM (inactive); with HCT-15 it was more than 100 µM; with SN12C it was > 100 µM (inactive). Also, the GI50 in the test with SK-MEL-2, in the test with ACHN, in the test with NCI/ADR-RES, in the test with COLO 205, with NCI-H460 and in the test with MDA-MB-231 was > 100 µM (inactive) throughout. For the same molecule, the GI50 in the test with SF-268, with UACC-257, with KM12, with SF-295, with MDA-MB-435 and with OVCAR-8 was > 100 µM (inactive) each time.

As to `COc1ccc(-c2cc(-c3ccc(Nc4ccnc5cc(Cl)ccc45)cc3)nc(N)c2C#N)c2ccccc12`, the GI50 in the test with OVCAR-5 is > 100 µM (inactive); in the test with LOX IMVI, > 100 µM (inactive); in the test on HOP-62, > 100 µM (inactive); in the test on HCT-15, more than 100 µM; in the test with SN12C, > 100 µM (inactive); in the test on MOLT-4, > 100 µM (inactive). Also, the GI50 in the test with SK-MEL-2, with ACHN, in the test with NCI/ADR-RES, in the test on COLO 205, with NCI-H460 and with MDA-MB-231 was > 100 µM (inactive) throughout. Also, the GI50 in the test on SF-268, with CCRF-CEM, in the test on UACC-257, with KM12, in the test on SF-295 and with MDA-MB-435 was > 100 µM (inactive) each time. For the same molecule, the GI50 in the test on OVCAR-8 is > 100 µM (inactive).

Consider `[N-]=[N+]=Nc1ccccc1-c1ccccc1[N+](=O)[O-]`, for which the GI50 in the test with OVCAR-5 was > 100 µM (inactive); with OVCAR-3, 39.4 µM (inactive); in the test on LOX IMVI, 48.6 µM (inactive); in the test with HOP-62, 87.9 µM (inactive); in the test with HCT-15, 42.6 µM; with SN12C it was 97.9 µM (inactive). Further, the GI50 in the test with MOLT-4 was 22.1 µM (inactive); with SK-MEL-2, 27.2 µM (inactive); with ACHN it was > 100 µM (inactive); in the test with NCI/ADR-RES, 29.9 µM (inactive); with NCI-H460, 26.9 µM (inactive); in the test on MDA-MB-231, 50.2 µM (inactive). For the same molecule, the GI50 in the test on SF-268 is 36.1 µM (inactive); with UACC-257 it was 25.4 µM (inactive); in the test on KM12 it was 49.2 µM (inactive); in the test on SF-295, 73.3 µM (inactive); in the test on MDA-MB-435 it was 32.3 µM (inactive); in the test with OVCAR-8 it was 73.3 µM (inactive).

Consider `O=c1ccn(C2OC(CN(O)CCC3C(O)C(CO)OC3n3ccc(=O)[nH]c3=O)C(O)C2O)c(=O)[nH]1` (configuration not stated), for which the GI50 with OVCAR-5 is > 100 µM (inactive); with OVCAR-3, > 100 µM (inactive); with LOX IMVI, > 100 µM (inactive); with HOP-62, > 100 µM (inactive); in the test with HCT-15 it was more than 100 µM; in the test on SN12C, > 100 µM (inactive). Moreover, the GI50 with SK-MEL-2, with ACHN, in the test on NCI/ADR-RES, in the test with COLO 205, in the test with NCI-H460 and with MDA-MB-231 was > 100 µM (inactive) in each case. Further, the GI50 in the test on SF-268, in the test on KM12, in the test with SF-295, with MDA-MB-435 and in the test with OVCAR-8 was > 100 µM (inactive) in each case.

For the molecule `CC(C)CC(NC(=O)C(N)CCC(=O)OCc1ccccc1)C(=O)NC(COCc1ccccc1)C(=O)NC(Cc1ccccc1)C(=O)ON1C(=O)CCC1=O` (configuration not stated) (H-E(OBn)LS(Bn)F-OSu; configuration not given here), the GI50 in the test with OVCAR-5 is 28.8 µM (inactive); in the test on LOX IMVI, 18.2 µM (inactive); in the test on SN12C, 29.8 µM (inactive); in the test with MOLT-4, 25.5 µM (inactive); with SK-MEL-2, 30.8 µM (inactive); with ACHN, 31.6 µM (inactive). Also, the GI50 with NCI/ADR-RES is 28.5 µM (inactive); with NCI-H460, 32.7 µM (inactive); in the test on MDA-MB-231 it was 18.1 µM (inactive); in the test with SF-268, 48.3 µM (inactive); in the test with CCRF-CEM it was 26.6 µM (inactive); in the test on UACC-257, 28.3 µM (inactive). In addition, the GI50 is 32.1 µM (inactive) in the test on KM12, 24.4 µM (inactive) with SF-295, 33 µM (inactive) with MDA-MB-435 and 31.6 µM (inactive) with OVCAR-8.

Consider `C[C@H](NC(=O)CNC(=O)CCCCCC(=O)NCC(=O)N[C@@H](C)C(=O)OCc1ccccc1)C(=O)OCc1ccccc1`, for which the GI50 is > 100 µM (inactive) with OVCAR-5; > 100 µM (inactive) in the test with OVCAR-3; > 100 µM (inactive) with LOX IMVI; > 100 µM (inactive) in the test on HOP-62; more than 100 µM in the test on HCT-15; > 100 µM (inactive) with SN12C. Moreover, the GI50 in the test with MOLT-4, in the test with SK-MEL-2, with ACHN, in the test on NCI/ADR-RES, in the test on COLO 205 and with MDA-MB-231 was > 100 µM (inactive) in each case. In addition, the GI50 in the test with SF-268, in the test on CCRF-CEM, with UACC-257, in the test on KM12, with SF-295 and in the test with MDA-MB-435 was > 100 µM (inactive) throughout. Further, the GI50 in the test with OVCAR-8 is > 100 µM (inactive).

Regarding `Oc1ccc2ccccc2c1/N=N/c1ccc(/N=N/c2ccccc2)cc1`, the GI50 in the test on OVCAR-5 is > 100 µM (inactive); in the test on OVCAR-3, > 100 µM (inactive); in the test on LOX IMVI it was > 100 µM (inactive); in the test on HOP-62, > 100 µM (inactive); in the test on HCT-15, more than 100 µM; in the test on SN12C it was > 100 µM (inactive). Besides, the GI50 with MOLT-4 is > 100 µM (inactive); in the test with SK-MEL-2, > 100 µM (inactive); in the test on ACHN, > 100 µM (inactive); in the test with NCI/ADR-RES, > 100 µM (inactive); in the test with COLO 205, > 100 µM (inactive); with MDA-MB-231 it was 89.1 µM (inactive). Moreover, the GI50 in the test with SF-268 was > 100 µM (inactive); with CCRF-CEM, > 100 µM (inactive); in the test on UACC-257 it was > 100 µM (inactive); in the test on KM12, 84.9 µM (inactive); in the test with SF-295 it was > 100 µM (inactive); in the test on MDA-MB-435 it was 64.1 µM (inactive). Besides, the GI50 with OVCAR-8 is > 100 µM (inactive).

As to `COC1CC(OC2C(C)OC(OC3C(C)OC(OC4C(O)CC(O[C@H]5CC[C@@]6(C)C(=CC[C@]7(O)[C@@H]6C[C@@H](OC(C)=O)[C@@]6(C)[C@]7(O)CC[C@@]6(O)C(C)=O)C5)OC4C)CC3OC)CC2OC)OC(C)C1O` (some centres not stated), the GI50 in the test with OVCAR-5 was > 12.5 µM (inactive); with OVCAR-3, > 12.5 µM (inactive); with LOX IMVI, > 12.5 µM (inactive); in the test on HOP-62, > 12.5 µM (inactive); in the test on HCT-15 it was more than 12.5 µM; in the test on SN12C, > 12.5 µM (inactive). Moreover, the GI50 in the test with MOLT-4, with SK-MEL-2, in the test on ACHN, in the test on NCI/ADR-RES, in the test on COLO 205 and with MDA-MB-231 was > 12.5 µM (inactive) each time. The GI50 with SF-268, in the test on CCRF-CEM, with UACC-257, with KM12, in the test with SF-295 and in the test with MDA-MB-435 was > 12.5 µM (inactive) each time. For the same molecule, in the test with OVCAR-8, the GI50 is > 12.5 µM (inactive).

On to `CC(C)(C)n1c(=O)n2c(-c3ccccc3)c(-c3ccccc3)n2c1=O`, for which the GI50 in the test with OVCAR-5 is > 100 µM (inactive); in the test on OVCAR-3 it was > 100 µM (inactive); with LOX IMVI, 68.4 µM (inactive); in the test on HCT-15, more than 100 µM; with SN12C, > 100 µM (inactive); in the test with SK-MEL-2 it was 28.8 µM (inactive). For the same molecule, the GI50 in the test with ACHN, in the test on NCI/ADR-RES, in the test on COLO 205, in the test on NCI-H460, in the test with MDA-MB-231 and in the test on SF-268 was > 100 µM (inactive) in each case. Further, the GI50 in the test with UACC-257, in the test with KM12, with SF-295, with MDA-MB-435 and with OVCAR-8 was > 100 µM (inactive) each time.

These data come from ChEMBL document CHEMBL1201862, “PubChem BioAssay data set” (2004).
